How the values were obtained:
Format in all cases: functional
Set-up in all cases: scale not given: the % may be the effect or the level left
Rattus norvegicus [1] = test: Analgesic activity inRattus norvegicus albino (rat) assessed as reduction of minimum electric shock-induced pain at 100 mg/kg after 2 hr relative to control
Rattus norvegicus [2] = test: Analgesic activity inRattus norvegicus albino (rat) assessed as reduction of minimum electric shock-induced pain at 100 mg/kg after 1 hr relative to control
Rattus norvegicus [3] = test: Anti-inflammatory activity inRattus norvegicus albino (rat) assessed as reduction of cotton pellet-induced dry weight of granuloma at 100 mg/kg, po measured after 7 days relative to control
Rattus norvegicus [4] = test: Anti-inflammatory activity inRattus norvegicus albino (rat) assessed as reduction of carrageenan-induced paw edema at 100 mg/kg, po administered 1 hr prior to carrageenan challenge measured after 3 hr by mercury plethysmographic analysis relative to control
Rattus norvegicus [5] = test: Analgesic activity inRattus norvegicus albino (rat) assessed as reduction of minimum electric shock-induced pain at 5 mg/kg after 2 hr relative to control
Rattus norvegicus [6] = test: Analgesic activity inRattus norvegicus albino (rat) assessed as reduction of minimum electric shock-induced pain at 5 mg/kg after 1 hr relative to control
Rattus norvegicus [7] = test: Anti-inflammatory activity inRattus norvegicus albino (rat) assessed as reduction of cotton pellet-induced dry weight of granuloma at 5 mg/kg, po measured after 7 days relative to control
Rattus norvegicus [8] = test: Anti-inflammatory activity inRattus norvegicus albino (rat) assessed as reduction of carrageenan-induced paw edema at 5 mg/kg, po administered 1 hr prior to carrageenan challenge measured after 3 hr by mercury plethysmographic analysis relative to control

| SMILES | Activity (Rattus norvegicus [1]) [%] | Activity (Rattus norvegicus [2]) [%] | Activity (Rattus norvegicus [3]) [%] | Activity (Rattus norvegicus [4]) [%] | Activity (Rattus norvegicus [5]) [%] | Activity (Rattus norvegicus [6]) [%] | Activity (Rattus norvegicus [7]) [%] | Activity (Rattus norvegicus [8]) [%] |
| --- | --- | --- | --- | --- | --- | --- | --- | --- |
| Cc1c(/N=C/c2nc3ccc(I)cc3c(=O)n2-c2ccc(F)cc2)c(=O)n(-c2ccccc2)n1C | 65.6 | 64.8 | 73.5 | 53.5 |  |  |  |  |
| Cc1c(/N=C/c2nc3ccc(I)cc3c(=O)n2-c2ccc(Cl)cc2)c(=O)n(-c2ccccc2)n1C | 54.2 | 53.7 | 60.7 | 47.4 |  |  |  |  |
| O=c1c2cc(I)ccc2nc(C2CC(c3ccccc3)=NN2)n1-c1ccc(Cl)cc1 (centres undefined) | 59.2 | 55.4 | 71.9 | 50.4 |  |  |  |  |
| O=C1NC(=S)S/C1=C/c1nc2ccc(I)cc2c(=O)n1-c1ccc(F)cc1 | 61.3 | 57.9 | 67.3 | 44.8 |  |  |  |  |
| Cc1c(N(C)CS(=O)(=O)[O-])c(=O)n(-c2ccccc2)n1C.[Na+] [DIPYRONE SODIUM] |  |  |  |  | 85.7 | 82.9 |  |  |
| O=C(N/N=C/c1nc2ccc(I)cc2c(=O)n1-c1ccc(F)cc1)c1ccncc1 | 64.3 | 57.1 | 66.7 | 45.3 |  |  |  |  |
| O=C(/C=C/c1nc2ccc(I)cc2c(=O)n1-c1ccc(F)cc1)c1ccccc1 | 54.1 | 46.9 | 41.8 | 28.3 |  |  |  |  |
| CCOc1ccccc1/N=C/c1nc2ccc(I)cc2c(=O)n1-c1ccc(F)cc1 | 56.1 | 39.3 | 50.2 | 38.9 |  |  |  |  |
| CCOc1ccccc1-n1c(N)c(C#N)c(-c2nc3ccc(I)cc3c(=O)n2-c2ccc(F)cc2)c(C#N)c1=O | 53.1 | 45.1 | 52.2 | 20.7 |  |  |  |  |
| COc1ccc2c(c1)c(CC(=O)O)c(C)n2C(=O)c1ccc(Cl)cc1 [INDOMETHACIN] |  |  |  |  |  |  | 75.2 | 78.3 |
| O=C1OC(c2ccccc2)=N/C1=C/c1nc2ccc(I)cc2c(=O)n1-c1ccc(Cl)cc1 | 63.3 | 60.9 | 72.6 | 49.6 |  |  |  |  |
| CC(=O)c1c(-c2nc3ccc(I)cc3c(=O)n2-c2ccc(Cl)cc2)[nH][nH]c1=O | 61.9 | 47.9 | 72.2 | 48.3 |  |  |  |  |
